US8436049B2, “Uses of pentamidine and related compounds” (State of Oregon Acting By and Through the State Board of …, priority 2008, dated 2013)
Starred links: 1 amine or outer side, 2 acyl side, 3 side chain; linkers in the order of their positions; H or OH if unused. Positions of bridges follow the written chain, without caps; N, C: chain ends. Non-standard residues stand in square brackets, D forms with d. Residues, ends and D or L forms follow the SMILES beside them. Chains are numbered I, II in the order given. Actinocin(9to1) = Cc1c2oc3c(C)ccc(C(=O)[*:1])c3nc-2c(C(=O)[*:2])c(N)c1=O; NMeV = CN[C@H](C(=O)O)C(C)C; Sar = CNCC(=O)O

How the values were obtained:
MBNL-CUG RNA complex = target: T1, MBNL-CUG RNA complex (Homo sapiens, UniProt Q9NR56); experiment: Gel shift assay, disruption of MBNL binding to short CUG repeat RNA; conditions: for Disruption of the MBNL-CUG interaction: gel shift screen, increasing amounts of small molecule
T1 construct: Both the full length MBNL and MBNL (1-260) constructs were cloned using BamHI and NotI restriction sites; GST (N, cleaved yes); made in house; host or cells: E. coli BL21-Star
T1 sequence (Q9NR56 1-382 isoform Q9NR56-5): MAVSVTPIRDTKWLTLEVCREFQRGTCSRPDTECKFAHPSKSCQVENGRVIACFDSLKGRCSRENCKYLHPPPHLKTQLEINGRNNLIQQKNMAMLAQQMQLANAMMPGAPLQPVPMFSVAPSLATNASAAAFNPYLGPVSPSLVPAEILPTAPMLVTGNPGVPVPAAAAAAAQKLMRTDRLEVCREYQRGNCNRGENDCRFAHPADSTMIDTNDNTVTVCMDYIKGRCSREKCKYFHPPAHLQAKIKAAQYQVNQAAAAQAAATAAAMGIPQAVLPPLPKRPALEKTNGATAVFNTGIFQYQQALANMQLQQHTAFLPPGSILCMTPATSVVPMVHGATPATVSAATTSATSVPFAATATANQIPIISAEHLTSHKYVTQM
Method: MBNL1 (MBNL) was PCR amplified and was cloned into GST fusion vector pGEX-6P-1 (GE Healthcare, Piscataway, N.J.), using DNA encoding a MBNL isoform with amino acids 1-382). Both the full length MBNL and MBNL (1-260) constructs were cloned using BamHI and NotI restriction sites. Using BL21-Star expression cells (Invitrogen, Carlsbad, Calif.), protein expression was induced with 0.25 mM IPTG at an OD600 of about 0.5-1, for 3-4 hours at 37° C. Cells were lysed in 30 ml of buffer (500 mM NaCl, 25 mM Tris pH 7.5, 10 mM β-mercaptoethanol (BME) and 5% glycerol) using 1 mg/ml of lysozyme, followed by sonication (3×30 seconds). Cell extract was centrifuged for 15 minutes at 17,000 rpm, and lysate which contained GST-MBNL was collected. GST-MBNL was bound to GST affinity beads for 30 minutes at 4° C. […] The protein was then run over an anion exchange (Q) column. […] MBNL was collected in the column flow through, concentrated and dialyzed into storage buffer (30% glycerol, 300 mM NaCl, 20 mM Tris pH 7.5, 5 mM BME) and stored at −80° C. Aliquots were removed from −80° C. and temporarily placed at −20° C. until used for an experiment.
All RNA substrates that were radiolabeled were ordered from IDT DNA (Coralville, Iowa), and 5′ end-labeled using [γ-^32P]ATP. All radiolabeled RNAs were purified on 8% polyacrylamide denaturing gels.
Solutions for the protein-RNA binding experiments contained 125 mM NaCl, 5 mM MgCl2, 20 mM Tris (pH 7.5), 7.5% glycerol, 2 mg/ml bovine serum albumin, and 0.1 mg/ml heparin. Prior to incubation, RNA substrates were annealed by incubation at 95° C. for 2 minutes and then placed directly on ice for 20 minutes in 66 mM NaCl, 6.7 mM MgCl2, and 27 mM Tris (pH 7.5). Protein was then added to the RNA in the presence or absence of the small molecule. The binding reaction was carried out in a 10 μL volume and was incubated for 10 minutes at room temperature before 2-4 μL were loaded on a pre-chilled 4° C. gel. RNA and RNA-protein complexes were separated on 3% acrylamide (37.5:1), 0.3% agarose (low melting point), 0.5× Tris-Borate (TB) gels, run for approximately 2-3 hours at 4° C. at 25-50 volts. Gels were dried and autoradiographed. For the neomycin B and CUG8 gel shift, an 8% acrylamide (29:1), 0.5×TB gel was used and run for 3 hours at 4° C. at 175 volts. All small molecules were dissolved in either water or ethanol, according to the manufacturer's guidance for solubility.
(§1) For binding curves, gels were quantified using ImageQuant® software (Molecular Dynamics, Piscataway, N.J.). The percent RNA bound was determined by taking the ratio of RNA-protein complex to total RNA, per lane. Any counts in the well were discarded as it was unapparent if the RNA was bound by protein, small molecule or was in an aggregate. Binding curves were graphed using KaleidaGraph software (Synergy Software, Reading, Pa.). For the neomycin B and CUG8 gel shift, the apparent Kd was determined using Equation 1, where Y=fraction bound, m0=small molecule concentration, m1=total RNA concentration, and m2=Kd.
For determining the EC50, Equation 3 was used, where m0=small molecule concentration, m1=EC50, m2=Hill coefficient, and m3=fraction MBNL bound without small molecule present. Y=m3/[1+(m0/m1)^m2] Equation 3 Results

MBNL-cTNT interaction = target: T2, MBNL-cTNT interaction (Homo sapiens, UniProt Q9NR56); experiment: Gel shift assay, disruption of MBNL binding to cTNT pre-mRNA site; conditions: read-out: EC50 for disruption of MBNL binding to cTNT target construct
T2 construct: Both the full length MBNL and MBNL (1-260) constructs were cloned using BamHI and NotI restriction sites; GST (N, cleaved yes); made in house; host or cells: E. coli BL21-Star
T2 sequence (Q9NR56 1-382 isoform Q9NR56-5): T1 sequence (Q9NR56 1-382 isoform Q9NR56-5)
Method: Solutions for the protein-RNA binding experiments contained 125 mM NaCl, 5 mM MgCl2, 20 mM Tris (pH 7.5), 7.5% glycerol, 2 mg/ml bovine serum albumin, and 0.1 mg/ml heparin. Prior to incubation, RNA substrates were annealed by incubation at 95° C. for 2 minutes and then placed directly on ice for 20 minutes in 66 mM NaCl, 6.7 mM MgCl2, and 27 mM Tris (pH 7.5). Protein was then added to the RNA in the presence or absence of the small molecule. The binding reaction was carried out in a 10 μL volume and was incubated for 10 minutes at room temperature before 2-4 μL were loaded on a pre-chilled 4° C. gel. […]
as §1, with “Any counts in the well were discarded as it was unapparent if the RNA was bound by protein, small molecule or was in an aggregate.” left out, “m2=Kd. […]” for “m2=Kd.”
Pentamidine has been shown previously to bind to other RNAs and DNAs (Zhang et al., RNA 6:937-951, 2000); therefore, we determined pentamidine binding to an endogenous target of MBNL. […]

[1] = test system: cTNT splicing reporter in HeLa cells; experiment: cTNT splicing reporter (exon 5 inclusion) in HeLa cells with or without CUG960 plasmid; assay type: cell-based; conditions: presence of the CUG960 construct
Method: HeLa cells were grown in monolayers in DMEM with GlutaMAX™ (Gibco, Carlsbad, Calif.) and supplemented with 10% fetal bovine serum. Approximately 2.0 (±0.2)×10^5 cells were plated in 6 well plates and transfected 18-20 hours later at 70-90% confluency. 1 μg of plasmid was transfected into each well of cells, using 5 μL of […] (Invitrogen) according to the manufacturer's protocols. For co-transfection, 1 μg of total plasmid was transfected, at 500 ng of each construct. Test compounds were added 4 hours after transfection, when the media was changed. Cells were harvested 18-22 hours after transfection using TrypLE™ reagent (Gibco).
Immediately following harvesting, RNA was isolated from the cell pellets using an RNeasy® kit (Qiagen, Valencia, Calif.). 500 ng of isolated RNA was DNased with RQI DNase (Promega, Madison, Wis.) according to manufacture's protocol. 100 ng of DNAsed RNA was reverse transcribed with Superscript® II (Invitrogen, Carlsbad, Calif.) and a cTNT-specific reverse primer according to manufacturer's protocols. 30 ng of the reverse transcription reaction was subjected to 22-25 rounds of PCR amplification using cTNT specific primers spiked with a forward primer 5′ end-labeled with [γ-^32P]ATP. Similar methods were used to reverse transcribe and amplify IR and PLEKHH2. […] The resulting PCR products were run on a 6% (19:1) polyacrylamide denaturing gel. The gel was subsequently autoradiographed and quantitation of the radioactive bands was performed using ImageQuant® software.
The following primer pairs were used. For the cTNT minigene, the forward primer was […] (SEQ ID NO: 1), and the reverse primer was […] (SEQ ID NO: 2). For the IR minigene, the forward primer was […] (SEQ ID NO: 3), and the reverse primer was […] (SEQ ID NO: 4). The underlined sections are for cloning purposes. For the PLEKHH2 minigene, the forward primer was […] (SEQ ID NO: 5), and the reverse primer was […] (SEQ ID NO: 6).
The ability of pentamidine to alter the splicing defects observed in a cell-based model for DM was tested. This was accomplished in a system using cells transformed with a plasmid expressing 960 CUG repeats where the expression of these CUG repeats causes splicing defects similar to those observed in DM cells and DM subjects (Savkur et al., Nature Genet. 29:40-47, 2001).

SMILES	Disruption of the MBNL-CUG interaction (MBNL-CUG RNA complex)	EC50 (MBNL-cTNT interaction) [µM]	EC50 (MBNL-CUG RNA complex; gel shift, short CUG repeat RNA (CUG4), read-out: EC50 for disruption of MBNL binding to CUG repeat construct) [µM]	Concentration giving complete rescue of cTNT missplicing [1] [µM]
Cc1c2oc3c(C)ccc(C(=O)N[C@@H]4C(=O)N[C@H](C(C)C)C(=O)N5CCC[C@H]5C(=O)N(C)CC(=O)N(C)[C@@H](C(C)C)C(=O)O[C@@H]4C)c3nc-2c(C(=O)N[C@@H]2C(=O)N[C@H](C(C)C)C(=O)N3CCC[C@H]3C(=O)N(C)CC(=O)N(C)[C@@H](C(C)C)C(=O)O[C@@H]2C)c(N)c1=O [actinomycin D] (I: T[dV]P[Sar][NMeV] / II: T[dV]P[Sar][NMeV]; ester I:1-I:C, II:1-II:C; linker I:N-II:N via Actinocin(9to1))	did not disrupt the MBNL-CUG interaction at any concentration	–	–	–
CN1C(=Cc2cc[n+](C)c3ccccc23)Sc2ccccc21 [thiazole orange]	disrupt the MBNL-CUG interaction at micromolar concentrations	–	–	–
NC[C@@H]1O[C@H](O[C@H]2[C@@H](O)[C@H](O[C@@H]3[C@@H](O)[C@H](N)C[C@H](N)[C@H]3O[C@H]3O[C@H](CN)[C@@H](O)[C@H](O)[C@H]3N)O[C@@H]2CO)[C@H](N)[C@@H](O)[C@@H]1O [neomycin B]	disrupt the MBNL-CUG interaction at micromolar concentrations	50	110	–
N=C(N)c1ccc(OCCCCCCCOc2ccc(C(=N)N)cc2)cc1 [heptamidine]	–	–	–	25
NC[C@@H]1O[C@H](O[C@H]2[C@@H](O)[C@H](O[C@@H]3[C@@H](O)[C@H](N)C[C@H](N)[C@H]3O[C@H]3O[C@H](CO)[C@@H](O)[C@H](O)[C@H]3N)O[C@@H]2CO)[C@H](N)[C@@H](O)[C@@H]1O [paromomycin]	did not disrupt the MBNL-CUG interaction at any concentration	–	–	–
